These results are taken from ChEMBL document CHEMBL1148679, “A novel iNOS and COX-2 inhibitor from the aerial parts of Rodgersia podophylla” (2006).

Conditions in all cases: Mus musculus
For assay [1], the system named is RAW264.7. Kind of assay: Decrease in iNOS level in LPS-activated Raw 264.7 cells. It counts as functional, cell-based.
For assay [2], the system named is RAW264.7. Kind of assay: Inhibition of iNOS expression in LPS-activated Raw 264.7 cells at 2 uM. In kind it is functional.
The subject of assay [3] is RAW264.7. Kind of assay: Decrease in COX2 level in LPS-activated Raw 264.7 cells. In kind it is functional, cell-based.
The test system of assay [4] is RAW264.7. Kind of assay: Inhibition of COX2 expression in LPS-activated Raw 264.7 cells at 3 uM. It counts as functional.

As usually defined, the inhibition is the change of the read-out against control, counted positive when it falls. High values mean a strong effect, low ones a weak effect. Turning to `C/C=C/c1ccc(Oc2ccc(O)cc2)c(C(C)CO)c1` (centres undefined) [RODGERSINOL], the Activity entry with RAW264.7 [1] and with RAW264.7 [3] was “Dose-dependent effect” throughout. Also, in the assay on RAW264.7 [2], the inhibition at 2 µM was found to be 50%. This compound also registered an inhibition at 3 µM in the assay on RAW264.7 [4] of 50%.
